# Measured values published in US11135310B2, “Gold porphyrin-PEG conjugates and methods of use” (The University of Hong Kong, priority 2015, dated 2021).
# Like-named read-outs stand apart in the source and are kept apart here.
# Experiments:
# HeLa = experiment: In vitro cytotoxicity, MTT assay; assay type: cell-based, human
# Excerpt: Therefore, it was anticipated that a not too high loading of DOX into nanostructures of 1 could be used for anti-cancer purposes in order to maintain low toxicity toward non-tumorigenic cells. Together with the higher encapsulation efficiency of DOX, NC1 was selected for investigations of the in vitro cytotoxicity. […] The in vitro cytotoxicity of NC1 was also compared to that of the mixture of nanostructures of 1 and DOX. […] The observed cytotoxicity was further evaluated by the combination index (CI), which can describe the effect of drug combination. […] It is shown that dose and effect are interchangeable via defined parameters. This general equation for the single drug effect has been extended to the multiple drug effect equation for n drugs. These equations provide the theoretical basis for the combination index (CI)-isobologram equation that allows quantitative determination of drug interactions, where CI<1, =1, and >1 indicate synergism, additive effect, and antagonism, respectively. [Chou, et al. Pharmacol. Rev. 2006, 58, 621] […] The synergistic effect can originate from different molecular targets and/or mechanism of action of DOX from that of gold(III) porphyrin complexes. […] These different modes of action would allow supra-additive effect on killing HeLa cells by the co-delivery.
# NCI-H460 = experiment: In vitro cytotoxicity, MTT assay; assay type: cell-based, human; details: for IC50: MTT assay, 72 h incubation
# non-tumorigenic cells = experiment: In vitro cytotoxicity, MTT assay, non-tumorigenic cells; assay type: cell-based; details: 72 h
# A2780adr [1] = details: for IC50: MTT assay, 72 h incubation
# MIHA = experiment: In vitro cytotoxicity, MTT assay
# HCT116 = experiment: In vitro cytotoxicity, MTT assay; assay type: cell-based, human; details: for IC50: HCT116, MTT assay, 72 h incubation
# A2780 = experiment: In vitro cytotoxicity, MTT assay; assay type: cell-based, human; details: for IC50: MTT assay, 72 h incubation
# A2780cis = experiment: In vitro cytotoxicity, MTT assay; assay type: cell-based, human; details: for IC50: MTT assay, 72 h incubation
# NCM460 = experiment: In vitro cytotoxicity, MTT assay; assay type: cell-based, human; details: 72 h incubation
# CCD-19Lu = experiment: In vitro cytotoxicity, MTT assay; assay type: cell-based; details: 72 h incubation
# HCT116 cells = experiment: Induction of apoptosis, CellEvent Caspase-3/7 Green (microscopy and flow cytometry); assay type: cell-based, human; details: NC1 ([1]=3.5 μM and [DOX]=0.5 μM) or DOX alone
# A2780adr cells = experiment: Cellular uptake of DOX, cell lysates by UPLC-QTOF-MS; assay type: cell-based, human; details: for Uptake of DOX by A2780adr cells: [DOX]=0.5 μM
# A2780adr [2] = experiment: cells; details: Homo sapiens, A2780 ADR, 72 h
# [3] = MTT assay, 72 h incubation, read-out: IC50
# [4] = MIHA, MTT assay, 72 h incubation
# [5] = IC50 of MIHA cells/IC50 of cancer cells
# [6] = IC50 of NCM460 cells/IC50 of cancer cells
smiles,measurement,setting,value
Oc1ccc(-c2c3nc(c(-c4ccccc4)c4ccc([n-]4)c(-c4ccccc4)c4nc(c(-c5ccccc5)c5ccc2[n-]5)C=C4)C=C3)cc1.[Au+3].[Cl-] [A4],IC50,HeLa; [3],380 ± 70 nM
same,IC50,NCI-H460,150 ± 3 nM
same,IC50 for non-tumorigenic cells,non-tumorigenic cells,submicromolar range
same,IC50,A2780adr [1]; A2780adr,530 ± 140 nM
same,IC50,MIHA; [4],570 ± 40 nM
O=C(O)CCCCCCCCC(=O)Oc1ccc(-c2c3nc(c(-c4ccccc4)c4ccc([n-]4)c(-c4ccccc4)c4nc(c(-c5ccccc5)c5ccc2[n-]5)C=C4)C=C3)cc1.[Au+3].[Cl-] [A10],IC50,HeLa; [3],410 ± 50 nM
same,IC50,NCI-H460,180 ± 4 nM
same,IC50 for non-tumorigenic cells,non-tumorigenic cells,submicromolar range
same,IC50,A2780adr [1]; A2780adr,520 ± 60 nM
same,IC50,MIHA; [4],610 ± 50 nM
"N.N.[Cl][Pt][Cl] [Cisplatin, cisplatin, reference compound]",IC50,HeLa; [3],19800 ± 1400 nM
same,IC50,NCI-H460,65400 ± 5000 nM
same,IC50,HCT116,15700 ± 2200 nM
same,IC50,A2780,2600 ± 300 nM
same,IC50,A2780cis; A2780cis,8400 ± 50 nM
same,Resistance found in A2780cis,A2780cis; Determined by IC50 of A2780cis cells/IC50 of A2780 cells,0.31
same,IC50,NCM460,12300 ± 900 nM
same,IC50,CCD-19Lu,49100 ± 5400 nM
same,IC50,A2780adr [1]; A2780adr,12700 ± 1900 nM
same,Resistance found in A2780adr,A2780adr [1]; Determined by IC50 of A2780adr cells/IC50 of A2780 cells,0.20
same,IC50,MIHA; [4],17600 ± 1300 nM
"COc1cccc2c1C(=O)c1c(O)c3c(c(O)c1C2=O)C[C@@](O)(C(=O)CO)C[C@@H]3O[C@H]1C[C@H](N)[C@H](O)[C@H](C)O1 [DOX, doxorubicin]",IC50,"HeLa; Homo sapiens, 72 h, read-out: DOX at IC50",570 nM
same,IC50,"HeLa; Homo sapiens, 72 h, read-out: Total dose at IC50",570 nM
same,IC50,"HeLa; Homo sapiens, MTT assay, 72 h incubation, read-out: IC50",570 ± 60 nM
same,Toxicity (of DOX) toward cancer cells compared to that toward MIHA cells,"HeLa; IC50 of MIHA cells/IC50 of cancer cells, cytotoxicity of 1 in NC1 not considered",0.2
same,Toxicity (of DOX) toward cancer cells compared to that toward NCM460 cells,"HeLa; IC50 of NCM460 cells/IC50 of cancer cells, cytotoxicity of 1 in NC1 not considered",1.8
same,IC50,NCI-H460; Homo sapiens,36 ± 10 nM
same,Toxicity (of DOX) toward cancer cells compared to that toward MIHA cells,NCI-H460; [5],2.8
same,Toxicity (of DOX) toward cancer cells compared to that toward NCM460 cells,NCI-H460; [6],27.8
same,Toxicity (of DOX) toward cancer cells compared to that toward MIHA cells,"HCT116; HCT-116, IC50 of MIHA cells/IC50 of cancer cells",0.7
same,Toxicity (of DOX) toward cancer cells compared to that toward NCM460 cells,"HCT116; HCT-116, IC50 of NCM460 cells/IC50 of cancer cells",7.1
same,IC50,"HCT116; Homo sapiens, HCT-116",140 ± 20 nM
same,IC50,A2780; Homo sapiens,45 ± 7 nM
same,Toxicity (of DOX) toward cancer cells compared to that toward MIHA cells,A2780; [5],2.2
same,Toxicity (of DOX) toward cancer cells compared to that toward NCM460 cells,A2780; [6],22.2
same,Toxicity (of DOX) toward cancer cells compared to that toward MIHA cells,"A2780cis; A2780cis, IC50 of MIHA cells/IC50 of cancer cells",1.9
same,Toxicity (of DOX) toward cancer cells compared to that toward NCM460 cells,"A2780cis; A2780cis, IC50 of NCM460 cells/IC50 of cancer cells",18.5
same,IC50,"A2780cis; Homo sapiens, A2780cis",54 ± 5 nM
same,Incubation time for induction of apoptosis of HCT116 cells,HCT116 cells,30 h
same,DOX uptake smaller than after incubation of NC1,A2780adr cells; 14 h,1.8 fold
same,DOX uptake smaller than after incubation of NC1,A2780adr cells; 24 h,3.0 fold
same,Uptake of DOX by A2780adr cells,A2780adr cells; incubation 14 h,33.9 μg per g of proteins
same,Uptake of DOX by A2780adr cells,A2780adr cells; incubation 24 h,27.8 μg per g of proteins
same,Toxicity (of DOX) toward cancer cells compared to that toward MIHA cells,"A2780adr [1]; A2780adr, IC50 of MIHA cells/IC50 of cancer cells",0.1
same,Toxicity (of DOX) toward cancer cells compared to that toward NCM460 cells,"A2780adr [1]; A2780adr, IC50 of NCM460 cells/IC50 of cancer cells",1.5
same,Lower cytotoxicity toward A2780adr cells than non-resistant A2780 cells,A2780adr [1]; from IC50 of Table 1,15 fold
same,IC50,A2780adr [2],680 ± 50 nM
same,IC50,A2780adr [2]; read-out: DOX at IC50,700 nM
same,IC50,A2780adr [2]; read-out: Total dose at IC50,700 nM
same,IC50,MIHA; 72 h,100 ± 10 nM
same,IC50,"MIHA; 72 h, read-out: DOX at IC50",100 nM
same,IC50,"MIHA; 72 h, read-out: Total dose at IC50",100 nM
